What was measured:
PI3Kδ = target: T1, PI3Kδ (Homo sapiens, UniProt O00329); assay: Inhibitory activity to PI3K δ, PI 3-Kinase (human) HTRF Assay kit; assay type: biochemical; details: for inhibition at 1 µM / inhibition at 10 µM: read-out: Inhibition rate % to PI3Kδ
T1 construct: purchased Millipore 14-604
Experimental: Study on the inhibitory activity of the compounds of present invention to PI 3κα, PI3κδ and PI3κγ.
(§1) PI 3-Kinase (human) HTRF™ Assay kit (Cat.33-017, Millipore)
For example, 10 μL DTT is added into 500 μL 4× Reaction Buffer, and water is added to 1.5 mL.
The Test compounds are dissolved with DMSO to 1 mM as storage liquid. 2 μL of each of storage liquid is added into 48 μL ddH2O, to obtain the 40 μM compounds solution containing 4% DMSO. After mixing, 3 μL of each of the solution is added into 27 μL 4% DMSO (in ddH2O) to obtain the 4 μM compounds solution. […]
The screening concentration of PI 3k δ kinase: 2 ng/well,
(§2) Kinase is diluted with 2×PIP2 operating fluid, the concentration of kinase operating fluid is 2 times of screening concentration.
The concentration of ATP is 100 μM in 20 μL kinase reaction system.
(§3) Stop A and Stop B are mixed according to the proportion of 3:1, and are placed for 2 hours at room temperature to obtain the stop solution available.
(§4) DM C, DM A and DM B are mixed according to the proportion of 18:1:1, and are placed for 2 hours at room temperature to obtain the detection solution available.

PDGFR β enzyme = target: T2, PDGFR β enzyme (Homo sapiens, UniProt P09619); assay: Inhibitory activity to PDGFR β enzyme, HTRF kinEASE TK kit; assay type: biochemical; details: for inhibition at 1 µM / inhibition at 10 µM: read-out: Inhibition rate % (PDGFR β)
T2 construct: purchased Invitrogen P3082
Experimental: HTRF kinEASE TK (Cat.62TK0PEC, Cisbio)
PDGFR β enzyme (Cat.P3082, Invitrogen)
1 mL 1×Kinase Buffer includes 200 μL 5×Enzyme buffer, 5 μL 1M MgCl2, 1 μL 1M DTT, 1 μL 1M MnCl2, 20 μL 2500 nM SEB, 773 μL ddH2O.
TK-Substrate and ATP are diluted to 2.5 times of reaction concentration with 1×PDGFR β Kinase Buffer.
5×PDGFR β enzyme working solution is prepared with 1×PDGFR β kinase buffer.
4×Sa-XL665 working solution is prepared with Detection Buffer.
TK-Ab-Cryptate is diluted 100 times with Detection Buffer to use as working solution.

[1] = test system: PC-3 cell Akt (Ser473) phosphorylation; assay: Inhibition of phosphorylation level of PC-3 cell Akt (Ser473), Cisbio HTRF phospho Akt (Ser473) cell-based assay; set-up: species or system human; details: Homo sapiens, PC-3, PC-3 cells, hEGF 100 ng/ml stimulation; 1st and 2nd test where printed
Experimental: The inhibitory activity of the compounds of present invention to the phosphorylation level of PC-3 cell Akt (Ser473) is studied by using Cisbio HTRF phospho Akt (Ser473) cell-based assay test kit.
Cell strain: PC-3 prostate cancer cells line (cell bank of Chinese Academy of Sciences) is cultured by using culture medium (F12K+10% FBS).
hEGF is prepared as stock solution of 100 ug/ml with 10 mM acetic acid, and the stock solution is diluted to 200 ng/ml with serum-free medium, added 50 ul to each well to be stimulated.
b) Preparation of Complete Lysate • 4×Lysis Buffer is diluted 4 times with ddH2O to prepare 1×Lysis Buffer. • 100×Blocking Reagent is diluted 100 times with 1×Lysis Buffer.
c) Preparation of Detection Liquid • 20×Anti-Phospho-Akt is diluted 20 times with Detection Buffer. • 20×Anti-Akt is diluted 20 times with Detection Buffer.
The compounds are diluted with DMSO, and the working concentration of compounds is 100 times of detection concentration.
Cells in logarithmic growth phase are collected, counted, and resuspended with complete culture medium;
The cell concentration is adjusted to appropriate concentration, and cell suspension is inoculated into 96 well plates at 50 μl per well;
Cells are incubated for more than 4 h in the 5% CO2 incubator at temperature of 37° C., relative humidity of 100%;
Cell plate is removed from the incubator. The cell suspension is aspirated gently, and 50 ul serum-free F12K medium is quickly added, then the cell plate is placed into the incubator to culture overnight.
The compounds are diluted in a linear gradient with DMSO.
0.5 ul compounds is added into the test well, mixed on oscillators, and incubated at room temperature for 2 hours.
Proportioned hEGF solution is added to test well at 50 μl per well, and the final concentration is 100 ng/ml. serum-free medium is added into The negative control well at 50 μl per well.
The solution is mixed on oscillator and incubated at room temperature for 2 hours.
The liquid in 96 well plates is aspirated by multichannel pipette or the supernatant is discarded gently. The proportioned complete lysate is added quickly at 50 μl per well.
The solution is mixed on oscillator and lysed at room temperature for 30 min.
16 μl cell lysate is transferred from the 96 well plates to white low volume 384 well plates, and the proportioned two pairs of detection antibody are added. The solution is mixed on oscillator, and incubated at room temperature for 4 hours to detect the readings.

PI3 K γ = target: T3, PI3 K γ (Homo sapiens, UniProt P48736); assay: Inhibitory activity to PI3K γ, PI 3-Kinase (human) HTRF Assay kit; assay type: biochemical; details: for inhibition at 1 µM / inhibition at 10 µM: read-out: Inhibition rate % to PI3 K γ
T3 construct: purchased Biology, Medicilon
From the text: (§5) Study on the inhibitory activity of the compounds of present invention to PI 3κα, PI3κδ and PI3κγ. Two or three concentrations of the compounds are selected to preliminary screening to calculate respectively the activity inhibition rate of the compounds of corresponding concentrations to enzyme, then the compounds with better activity are selected by preliminary screening for IC50 test.
as §1
PI 3k γ (Biology, Medicilon)
(§6) 4× Reaction Buffer (Cat.33-002, Millipore) is diluted with ddH2O to 1.33×, and 1M DTT is added to make the final concentration as 6.67 mM. For example, 10 μL DTT is added into 500 μL 4× Reaction Buffer, and water is added to 1.5 mL.
(§7) The Test compounds are dissolved with DMSO to 1 mM as storage liquid. 2 μL of each of storage liquid is added into 48 μL ddH2O, to obtain the 40 μM compounds solution containing 4% DMSO. After mixing, 3 μL of each of the solution is added into 27 μL 4% DMSO (in ddH2O) to obtain the 4 μM compounds solution. 5 μL of each dilute solution is added into 384-well plates, then the final concentration of the compounds in the 20 μL final kinase reaction system is 10 μM and 1 μM respectively contained 1% DMSO. The dilution methods of compounds are similar to the preliminary screening in IC50 test.
(§8) 2×PIP2 working fluid is prepared with 1.33× reaction buffer to the final concentration of 20 μM.
The screening concentration of PI 3k γ kinase: 80 ng/well,
as §2
(§9) 10 mM ATP is diluted with 1.33× reaction buffer to 400 μM. The concentration of ATP is 100 μM in 20 μL kinase reaction system.
as §3, §4

PI3K α = target: T4, PI3K α (Homo sapiens, UniProt P42336); assay: Inhibitory activity to PI3K α, PI 3-Kinase (human) HTRF Assay kit; assay type: biochemical; details: read-out: % Inhibition Rate to PI3K α
T4 construct: purchased Millipore 14-602
From the text: as §5, §1
PI 3k α (Cat.14-602, Millipore)
as §6, §7, §8
The screening concentration of PI 3k α kinase: 8 ng/well,
as §2, §9, §3, §4

T2 sequence (P09619 33-1106): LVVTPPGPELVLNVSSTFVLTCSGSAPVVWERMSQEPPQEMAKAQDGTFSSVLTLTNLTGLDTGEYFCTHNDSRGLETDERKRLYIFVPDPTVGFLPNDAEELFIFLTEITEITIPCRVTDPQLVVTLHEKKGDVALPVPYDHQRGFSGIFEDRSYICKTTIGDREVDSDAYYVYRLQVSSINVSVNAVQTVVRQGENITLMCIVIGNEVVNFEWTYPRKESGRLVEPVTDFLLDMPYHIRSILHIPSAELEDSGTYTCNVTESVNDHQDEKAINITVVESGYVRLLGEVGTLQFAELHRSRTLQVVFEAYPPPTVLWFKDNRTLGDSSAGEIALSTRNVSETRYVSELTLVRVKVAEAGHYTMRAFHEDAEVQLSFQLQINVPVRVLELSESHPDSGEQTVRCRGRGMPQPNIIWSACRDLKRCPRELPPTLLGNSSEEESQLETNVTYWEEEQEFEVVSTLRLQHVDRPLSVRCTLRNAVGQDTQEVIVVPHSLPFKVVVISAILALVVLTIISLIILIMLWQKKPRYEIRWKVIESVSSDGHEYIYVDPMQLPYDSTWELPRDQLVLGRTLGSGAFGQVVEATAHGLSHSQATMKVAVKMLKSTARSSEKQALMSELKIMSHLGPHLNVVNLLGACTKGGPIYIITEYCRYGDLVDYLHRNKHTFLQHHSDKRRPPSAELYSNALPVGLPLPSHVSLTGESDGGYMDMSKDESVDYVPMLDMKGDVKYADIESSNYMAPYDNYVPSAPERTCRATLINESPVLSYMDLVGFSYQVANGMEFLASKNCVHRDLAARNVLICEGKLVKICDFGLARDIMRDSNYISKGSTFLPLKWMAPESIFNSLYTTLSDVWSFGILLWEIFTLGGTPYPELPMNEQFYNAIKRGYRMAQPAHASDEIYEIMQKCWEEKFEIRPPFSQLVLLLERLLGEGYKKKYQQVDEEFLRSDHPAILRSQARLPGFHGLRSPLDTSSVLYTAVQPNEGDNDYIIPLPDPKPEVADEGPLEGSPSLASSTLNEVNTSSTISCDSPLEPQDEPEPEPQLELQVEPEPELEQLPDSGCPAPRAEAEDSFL
T1 sequence (O00329 whole entry): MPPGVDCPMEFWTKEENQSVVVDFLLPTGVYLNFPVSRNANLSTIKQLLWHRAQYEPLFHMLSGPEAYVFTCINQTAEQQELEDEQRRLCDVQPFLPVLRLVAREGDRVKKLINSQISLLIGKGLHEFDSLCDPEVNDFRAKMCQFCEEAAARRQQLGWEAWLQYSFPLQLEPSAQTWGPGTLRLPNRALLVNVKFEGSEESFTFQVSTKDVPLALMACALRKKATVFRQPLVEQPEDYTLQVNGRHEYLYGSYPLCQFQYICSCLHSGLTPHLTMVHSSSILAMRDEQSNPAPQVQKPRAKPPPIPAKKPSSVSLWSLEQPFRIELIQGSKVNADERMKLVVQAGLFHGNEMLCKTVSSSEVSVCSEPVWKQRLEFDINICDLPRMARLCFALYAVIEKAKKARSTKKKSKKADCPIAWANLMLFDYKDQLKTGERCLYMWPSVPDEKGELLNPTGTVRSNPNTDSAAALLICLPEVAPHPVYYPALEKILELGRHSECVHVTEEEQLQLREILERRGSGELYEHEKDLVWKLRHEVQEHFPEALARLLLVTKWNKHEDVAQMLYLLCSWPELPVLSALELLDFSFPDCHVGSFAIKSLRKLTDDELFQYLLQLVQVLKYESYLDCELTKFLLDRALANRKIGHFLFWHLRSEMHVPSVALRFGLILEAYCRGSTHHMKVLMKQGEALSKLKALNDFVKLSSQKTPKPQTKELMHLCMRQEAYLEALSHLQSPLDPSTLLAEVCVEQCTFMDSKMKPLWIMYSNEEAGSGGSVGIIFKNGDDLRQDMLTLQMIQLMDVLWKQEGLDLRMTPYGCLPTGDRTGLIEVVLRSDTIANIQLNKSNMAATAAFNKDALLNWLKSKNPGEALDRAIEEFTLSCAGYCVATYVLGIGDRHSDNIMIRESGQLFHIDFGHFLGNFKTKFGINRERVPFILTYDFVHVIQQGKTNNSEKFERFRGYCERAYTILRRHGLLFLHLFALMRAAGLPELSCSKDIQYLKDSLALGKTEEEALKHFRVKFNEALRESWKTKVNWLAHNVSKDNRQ
T1 sequence (P27986 whole entry partner): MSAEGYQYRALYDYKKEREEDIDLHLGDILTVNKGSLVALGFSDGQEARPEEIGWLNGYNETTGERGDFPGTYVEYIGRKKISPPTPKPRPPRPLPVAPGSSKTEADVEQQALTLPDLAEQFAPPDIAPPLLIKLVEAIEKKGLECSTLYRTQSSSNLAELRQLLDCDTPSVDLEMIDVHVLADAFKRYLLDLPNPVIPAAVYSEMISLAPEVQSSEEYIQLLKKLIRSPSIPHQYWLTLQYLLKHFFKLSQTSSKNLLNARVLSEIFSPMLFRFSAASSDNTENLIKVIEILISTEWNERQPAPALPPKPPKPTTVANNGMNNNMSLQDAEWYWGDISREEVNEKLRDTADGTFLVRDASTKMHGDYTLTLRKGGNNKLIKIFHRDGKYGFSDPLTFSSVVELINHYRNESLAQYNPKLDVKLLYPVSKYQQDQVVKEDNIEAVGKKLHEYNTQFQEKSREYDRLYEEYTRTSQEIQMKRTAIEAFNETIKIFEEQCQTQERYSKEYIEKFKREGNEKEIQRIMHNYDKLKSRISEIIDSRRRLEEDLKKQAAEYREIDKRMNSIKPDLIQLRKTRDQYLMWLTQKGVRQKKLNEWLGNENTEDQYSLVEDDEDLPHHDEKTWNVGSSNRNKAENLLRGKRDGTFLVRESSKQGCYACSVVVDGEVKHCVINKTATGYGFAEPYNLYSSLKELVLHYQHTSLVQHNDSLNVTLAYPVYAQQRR
T4 sequence (P42336 whole entry): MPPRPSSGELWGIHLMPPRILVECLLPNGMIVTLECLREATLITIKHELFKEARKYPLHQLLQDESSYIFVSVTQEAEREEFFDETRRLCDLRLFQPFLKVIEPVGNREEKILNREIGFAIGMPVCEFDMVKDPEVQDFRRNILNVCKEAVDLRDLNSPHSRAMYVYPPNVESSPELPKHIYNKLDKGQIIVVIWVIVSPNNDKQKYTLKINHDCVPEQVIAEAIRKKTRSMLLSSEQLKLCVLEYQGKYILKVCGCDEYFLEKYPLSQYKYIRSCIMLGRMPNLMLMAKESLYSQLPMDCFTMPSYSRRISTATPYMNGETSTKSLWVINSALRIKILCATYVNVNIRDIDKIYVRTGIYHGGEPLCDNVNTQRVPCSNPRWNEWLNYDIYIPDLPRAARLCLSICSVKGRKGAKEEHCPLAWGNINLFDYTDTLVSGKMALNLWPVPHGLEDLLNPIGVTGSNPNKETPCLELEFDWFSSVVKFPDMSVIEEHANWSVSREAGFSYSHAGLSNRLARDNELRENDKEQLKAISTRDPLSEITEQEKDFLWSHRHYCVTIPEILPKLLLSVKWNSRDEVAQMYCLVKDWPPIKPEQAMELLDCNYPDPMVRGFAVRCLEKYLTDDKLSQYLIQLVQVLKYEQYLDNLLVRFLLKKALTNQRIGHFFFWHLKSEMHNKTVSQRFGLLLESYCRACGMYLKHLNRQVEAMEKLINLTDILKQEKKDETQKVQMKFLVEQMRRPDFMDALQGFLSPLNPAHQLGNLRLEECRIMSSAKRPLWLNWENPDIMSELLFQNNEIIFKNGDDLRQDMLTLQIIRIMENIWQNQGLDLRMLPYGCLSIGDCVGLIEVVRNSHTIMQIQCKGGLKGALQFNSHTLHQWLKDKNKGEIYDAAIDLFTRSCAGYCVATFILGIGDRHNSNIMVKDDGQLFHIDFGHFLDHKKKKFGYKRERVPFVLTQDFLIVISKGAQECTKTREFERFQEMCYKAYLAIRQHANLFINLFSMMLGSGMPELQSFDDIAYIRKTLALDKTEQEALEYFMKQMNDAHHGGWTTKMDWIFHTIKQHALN
T4 sequence (P27986 whole entry partner): as the sequence (P27986 whole entry partner) above
T3 sequence (P48736 whole entry): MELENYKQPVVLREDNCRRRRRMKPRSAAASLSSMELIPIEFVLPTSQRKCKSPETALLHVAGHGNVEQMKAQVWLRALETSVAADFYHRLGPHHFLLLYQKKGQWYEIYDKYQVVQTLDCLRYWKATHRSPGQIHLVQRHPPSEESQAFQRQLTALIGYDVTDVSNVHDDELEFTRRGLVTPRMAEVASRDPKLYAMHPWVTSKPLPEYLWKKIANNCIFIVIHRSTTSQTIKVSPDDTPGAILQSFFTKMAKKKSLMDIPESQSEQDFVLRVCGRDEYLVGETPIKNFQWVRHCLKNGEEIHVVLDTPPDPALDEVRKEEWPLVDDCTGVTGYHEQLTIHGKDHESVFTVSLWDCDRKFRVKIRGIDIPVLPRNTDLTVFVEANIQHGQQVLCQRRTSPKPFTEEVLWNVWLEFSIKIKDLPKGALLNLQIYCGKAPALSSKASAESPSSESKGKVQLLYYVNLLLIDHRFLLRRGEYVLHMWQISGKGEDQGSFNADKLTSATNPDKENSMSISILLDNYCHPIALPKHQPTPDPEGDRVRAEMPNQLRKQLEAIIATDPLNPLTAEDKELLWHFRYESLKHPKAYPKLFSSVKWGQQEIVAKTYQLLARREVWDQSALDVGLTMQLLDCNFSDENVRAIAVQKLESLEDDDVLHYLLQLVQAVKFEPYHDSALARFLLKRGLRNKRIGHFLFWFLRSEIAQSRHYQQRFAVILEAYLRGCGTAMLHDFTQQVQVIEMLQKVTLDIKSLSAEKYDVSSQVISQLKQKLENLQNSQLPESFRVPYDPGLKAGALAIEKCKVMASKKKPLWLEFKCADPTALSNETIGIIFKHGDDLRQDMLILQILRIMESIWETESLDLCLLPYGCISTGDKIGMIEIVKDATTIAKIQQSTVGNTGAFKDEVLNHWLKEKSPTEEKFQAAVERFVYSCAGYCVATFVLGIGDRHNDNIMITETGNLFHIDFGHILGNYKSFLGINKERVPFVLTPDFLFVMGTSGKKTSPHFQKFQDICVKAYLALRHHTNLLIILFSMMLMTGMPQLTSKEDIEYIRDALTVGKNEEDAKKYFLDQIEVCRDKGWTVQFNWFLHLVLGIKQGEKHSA

SMILES	inhibition at 1 µM (PI3Kδ; 1 μM (Table 7)) [%]	inhibition at 10 µM (PI3Kδ; 10 μM (Table 7)) [%]	inhibition at 1 µM (PDGFR β enzyme; 1 μM) [%]	inhibition at 10 µM (PDGFR β enzyme; 10 μM) [%]	IC50 [1] [nM]	inhibition at 1 µM (PI3 K γ; 1 μM) [%]	inhibition at 10 µM (PI3 K γ; 10 μM) [%]	inhibition at 1 µM (PI3K α) [%]	inhibition at 10 µM (PI3K α) [%]	Inhibition rate % to PI3Kδ (PI3Kδ; 1 μM (Table 7), 1 µM) [%]	Inhibition rate % to PI3Kδ (PI3Kδ; 10 μM (Table 7), 10 µM) [%]	Inhibition rate % (PDGFR β) (PDGFR β enzyme; 1 μM) [%]	Inhibition rate % (PDGFR β) (PDGFR β enzyme; 10 μM) [%]	Inhibition rate % to PI3 K γ (PI3 K γ; 1 μM) [%]	Inhibition rate % to PI3 K γ (PI3 K γ; 10 μM) [%]
COc1ccc(-c2ccnc3ccc(Nc4nc(NC5CC5)c5nc[nH]c5n4)cc23)cc1 [MED1007-63, N6-cyclopropyl-N2-(4-(4-methoxyphenyl)quinoline-6-yl)-9H-purine-2,6-diamine]	37.5	122	-0.31	28	62.2	0.96	14.7								
NCCNc1nc(Nc2ccc3nccc(-c4ccccc4)c3c2)nc2[nH]cnc12 [MED1007-70, N6-(2-aminoethyl 1)-N2-(4-phenylquinoline-6-yl)-9H-purine-2,6-diamine]	41	51.6	33.4	73		5.26	10.8	26.6	62.5						
COCCCNc1nc(Nc2ccc3nccc(-c4ccccc4)c3c2)nc2[nH]cnc12 [MED1007-67, N6-(3-methoxypropyl)-N2-(4-phenylquinoline-6-yl)-9H-purine-2,6-diamine]	11.3	32	22.2	18.7		0.71	10.2	3.77	37.2						
c1ccc(-c2ccnc3ccc(Nc4nc(NC5CC5)c5nc[nH]c5n4)cc23)cc1 [MED1007-31, N6-cyclopropyl-N2-(4-phenylquinoline-6-yl)-9H-purine-2,6 diamine]					112					40.16	97.80	13.84	26.16	11.33	52.59

Other lines, results leading:

inhibition at 1 µM (PI3Kδ; 1 μM (Table 7)) [%]	inhibition at 10 µM (PI3Kδ; 10 μM (Table 7)) [%]	inhibition at 1 µM (PDGFR β enzyme; 1 μM) [%]	inhibition at 10 µM (PDGFR β enzyme; 10 μM) [%]	IC50 [1] [nM]	inhibition at 1 µM (PI3 K γ; 1 μM) [%]	inhibition at 10 µM (PI3 K γ; 10 μM) [%]	inhibition at 1 µM (PI3K α) [%]	inhibition at 10 µM (PI3K α) [%]	Inhibition rate % to PI3Kδ (PI3Kδ; 1 μM (Table 7), 1 µM) [%]	Inhibition rate % to PI3Kδ (PI3Kδ; 10 μM (Table 7), 10 µM) [%]	Inhibition rate % (PDGFR β) (PDGFR β enzyme; 1 μM) [%]	Inhibition rate % (PDGFR β) (PDGFR β enzyme; 10 μM) [%]	Inhibition rate % to PI3 K γ (PI3 K γ; 1 μM) [%]	Inhibition rate % to PI3 K γ (PI3 K γ; 10 μM) [%]	SMILES
44.4	87.4	54.8	99	74.5	19.2	53									c1cnc2ccc(Nc3nc(OC4CCCC4)c4nc[nH]c4n3)cc2c1 [MED1007-35, N-(6-cyclopentyloxy-9H-purine-2-yl) quinoline-6-amine]
68	87.5			276			55.3	82.2							c1ccc(-c2ccnc3ccc(Nc4nc(N5CCCC5)c5nc[nH]c5n4)cc23)cc1 [MED1007-103, 4-phenyl-N-(6-(pyrrolidine-1-yl)-9H-purine-2-yl)quinoline-6-amine]
4.75	19.8	17	14.5		1.48	-2.46	-2.28	-4.35							c1ccc(-c2ccnc3ccc(Nc4nc(NC5CC5)c5ncn(C6CCNCC6)c5n4)cc23)cc1 [MED1007-66, N6-cyclopropyl-N2-(4-phenylquinoline-6-yl)-9-(piperidine-4-yl)-9H-purine-2,6-diamine]
10.9	42.6	13.2	8.74		6.93	10.9	11.1	51.3							c1ccc(-c2ccnc3ccc(Nc4nc(NC5CCC5)c5nc[nH]c5n4)cc23)cc1 [MED1007-75, N6-cyclobutyl-N2-(4-phenylquinoline-6-yl)-9H-purine-2,6-diamine]
33.9	89.5	7.25	2.5		2.15	42.7	8.78	65.9							Fc1ccc(-c2ccnc3ccc(Nc4nc(NC5CCC5)c5nc[nH]c5n4)cc23)cc1 [MED1007-72, N6-cyclobutyl-N2-(4-(4-fluorophenyl)quinoline-6-yl)-9H-purine-2,6-diamine]
24.4	64.4	9.74	4.5		2.55	47.4	10.4	75							COc1cccc(-c2ccnc3ccc(Nc4nc(NC5CCC5)c5nc[nH]c5n4)cc23)c1 [MED1007-71, N6-cyclobutyl-N2-(4-(3-methoxyphenyl)quinoline-6-yl)-9H-purine-2,6-diamine]
